Results taken from patent publication US5688767A, “Treatment of endotoxin-associated disorders with cationic peptides” (priority 1996, dated 1997).
≈ marks a conversion by molar mass, not a printed value. Where two headings read alike, the source gives them in different places.

Tests used:
[1] = MIC of common antibiotics in the presence of sub-MIC levels of cationic peptides; assay type: cell-based
Source text: The ability of the cationic peptides to work synergistically was examined by determining the MIC values for some commonly used antibiotics in the presence of sub-MIC levels of cationic peptides (Table 4). […] This may be due to the high membrane permeabilizing activity of CEMA (see below). However, the peptides did lower the MIC of polymyxin B, possibly due to the fact that they are all taken up by the same pathway and are therefore aiding each other's uptake. Of interest is the influence that melittin has on the MIC of polymyxin B, given the weak membrane permeabilizing activity of melittin.

P. aeruginosa = test: microbe, parasite or virus in culture; assay type: cell-based, Pseudomonas aeruginosa
Procedure: (§1) The minimum inhibitory concentrations of (MIC) of CEME, CEMA and melittin were determined for a number of different bacteria (Table 2). Briefly, cells were grown overnight at 37° C. in LB-S (Luria broth without any salt supplement) and diluted one in 10,000 in the same medium to give concentrations of about 10^4 to 10^5 CFU/ml. The broth dilutions were set up in a 96 well microtiter plate by putting 200 μl of LB-S containing the initial concentration of antibiotic or compound in column 1 and 100 μl of the same medium in columns 2-12. The compounds were diluted by taking 100 μl of broth from column 1 and mixing it with column 2, resulting in a one in two dilution. This was continued to column 10. Finally, 10 μl of bacteria were pipetted into columns 1-11, and the plates incubated overnight at 37° C. The next day the plates were scored for growth in the wells, and the MIC determined.
(§2) Bacteria included the Bort strain of E. coli (Bortolussi, et al., Inf. Immun., 25:293, 1979) that was originally derived from a case of neonatal meningitis, and which is therefore considered a relevant pathogenic strain to study, and the 0111:B4 strain of E. coli (kindly provided by Dr. D. Morrison) which is a standard source of endotoxin. (Kelly, et al., Inf. Immun., 59:4491, 1991). In addition, P. aeruginosa PA01 strain H103, P. aeruginosa M2, P. aeruginosa K799, Eschericha coli UB 1005, Enterobacter cloacae 218S, Salmonella typhimurium MS7953s, Klebsiella pneumoniae ATCC 13883, Xanthomonas maltophilia ATCC 13637, and Acinetobacter calcoacetious 8193 were employed. LPS was obtained from E. coli Bort by the technique of Westphal and Jann, (Westphal, et al., Acad. Press, Inc. NY., 5:83) and from P. aeruginosa H103 by the method of Darveau and Hancock, (Darveau, et al., J. Bacteriol, 155:831, […]). E. coli 0111:B4 LPS was purchased from Sigma.

E. coli = test: microbe, parasite or virus in culture; assay type: cell-based, Escherichia coli
Procedure: as §1, §2

S. typhimurium = test: microbe, parasite or virus in culture; assay type: cell-based, Salmonella typhimurium
Procedure: as §1, §2

E. cloacae = test: microbe, parasite or virus in culture; assay type: cell-based, Enterobacter cloacae
Procedure: as §1, §2

S. aureus = test: microbe, parasite or virus in culture; assay type: cell-based, Staphylococcus aureus
Procedure: as §1

P. AERUGINOSA H309 = test: microbe, parasite or virus in culture; assay type: cell-based, Pseudomonas aeruginosa
Procedure: as §1, with “Briefly,” for “The minimum inhibitory concentrations of (MIC) of CEME, CEMA and melittin were determined for a number of different bacteria (Table 2). Briefly,”

P. aeruginosa H103 LPS = test: Dansyl polymyxin (DPx) displacement from purified LPS; assay type: binding, Pseudomonas aeruginosa; settings: 2.5 μM DPx, 3 μg/ml LPS, 5 mM HEPES pH 7.2, average of at least three trials
Procedure: In this assay, DPx was incubated with LPS to saturate the binding sites and then, while polycationic compounds are titrated into the reaction, displacement of the DPx was monitored by the decrease in fluorescence (FIG. 9). P. aeruginosa LPS was isolated as previously described (Darveau, et al., J of Bacteriology, 155:831, 1983) Dansyl polymyxin was synthesized as described by Schindler, et al., B. Antimicrobial Agents and Chemo, 8:95, 1975.
The method of Moore, et al., (Antimicrobial Agents and Chemo., 29:496, 1987), was used to test how much DPx was needed to saturate the binding sties on LPS. Briefly, 5 μl samples of 100 μM DPx were titrated sequentially into 1 ml of 3 μg/ml of LPS until a maximum fluorescence was reached. The fluorescence was measured in a Perkin-Elmer 650-10S fluorescence spectrophotometer with an excitation wavelength of 340 nm and an emission wavelength of 485 nm using slit widths of 5 nm. […] For the binding inhibition assays (Moore, et al., Antimicrobial Agents and Chemo., 29:496, 1987), 2.5 μM DPx was added to 3 μg/ml of H103 LPS in 5 mM HEPES pH 7.2. The test compounds were added 5 μl at a time and the decrease in fluorescence due to displacement of the DPx from the LPS was recorded.
When the data was plotted as a double reciprocal plot (FIG. 10), the X-intercept provided a value that is equal to -1/I50.

[2] = test system: P. aeruginosa H309 Whole Cells; test: DPx binding inhibition using whole cells; parameters: species or system Pseudomonas aeruginosa; settings: DPx at 90-100% binding saturation, average of at least three trials
Procedure: For DPx binding inhibition assays using whole cells instead of purified LPS, H309 cells were prepared the same way as for the lysozyme lysis assay. The assay consisted of 10 μl of cells at an OD600 of 0.5, 990 μl of 5 mM HEPES pH 7.2 and 5 mM KCN, and the concentration of DPx that gave 90-100% binding saturation. […] Compounds were titrated in, and I50 values were determined as described above.

CN(C)[C@@H]1C(O)=C(C(N)=O)C(=O)[C@@]2(O)C(O)=C3C(=O)c4c(O)cccc4[C@@](C)(O)[C@H]3C[C@@H]12 [Tetracycline, tetracycline]
MIC in the presence of ([1]; CEMA 0.7 μg/ml): 8 μg/m1 | MIC in the presence of ([1]; CEMA 1.4 μg/ml): 4 μg/m1 | MIC in the presence of ([1]; CEME 0.6 μg/ml): 8 μg/m1 | MIC in the presence of ([1]; CEME 1.2 μg/ml): 8 μg/m1 | MIC in the presence of ([1]; Melittin 2 μg/ml): 8 μg/m1 | MIC in the presence of ([1]; Melittin 4 μg/ml): 8 μg/m1 | MIC in the presence of ([1]; No peptide): 8 μg/m1

C[C@@H](O)[C@H]1C(=O)N2C(C(=O)O)=C(SCCN=CN)C[C@H]12 [Imipenem, imipenem]
MIC in the presence of ([1]; CEMA 0.7 μg/ml): 4 μg/m1 | MIC in the presence of ([1]; CEMA 1.4 μg/ml): 2 μg/m1 | MIC in the presence of ([1]; CEME 0.6 μg/ml): 4 μg/m1 | MIC in the presence of ([1]; CEME 1.2 μg/ml): 4 μg/m1 | MIC in the presence of ([1]; Melittin 2 μg/ml): 4 μg/m1 | MIC in the presence of ([1]; Melittin 4 μg/ml): 4 μg/m1 | MIC in the presence of ([1]; No peptide): 4 μg/m1

CC(C)(O/N=C(\C(=O)N[C@@H]1C(=O)N2C(C(=O)[O-])=C(C[n+]3ccccc3)CS[C@H]12)c1csc(N)n1)C(=O)O [Ceftazidime, ceftazidime]
MIC (P. aeruginosa; Pseudomonas aeruginosa, strain H187, Parent of H188, read-out: MIC): 2 µg/mL (≈ 3.66 µM) | MIC (P. aeruginosa; Pseudomonas aeruginosa, strain H188, Antibiotic sensitive, read-out: MIC): 0.03 µg/mL (≈ 0.0549 µM) | MIC (P. aeruginosa; Pseudomonas aeruginosa, strain H309, Wildtype, read-out: MIC): 1 µg/mL (≈ 1.83 µM) | MIC (E. coli; Escherichia coli, SC9251 / SC9252, strain SC9251, Parent of SC9252): 0.12 µg/mL (≈ 0.22 µM) | MIC (E. coli; Escherichia coli, SC9252, strain SC9252, Polymyxin resistant): 0.5 µg/mL (≈ 0.915 µM) | MIC (E. coli; Escherichia coli, strain DC2, Polymyxin sensitive): 0.06 µg/mL (≈ 0.11 µM) | MIC (E. coli; Escherichia coli, strain UB1005, Parent of DC2 (Table 2)): 0.5 µg/mL (≈ 0.915 µM) | MIC (S. typhimurium; Salmonella enterica, TYPHIMURIUM): 0.25 µg/mL (≈ 0.457 µM) | MIC (S. typhimurium; strain C590, Defensin sensitive): 0.25 µg/mL (≈ 0.457 µM) | MIC (E. cloacae; Enterobacter cloacae, strain 218R1, β-lactam resistant): > 16 µg/mL | MIC (E. cloacae; Enterobacter cloacae, strain 218S, Parent of 218R1 (Table 2)): 0.5 µg/mL (≈ 0.915 µM) | MIC (S. aureus; Staphylococcus aureus, strain RN4220, Methicillin sensitive): 8 µg/mL (≈ 14.6 µM) | MIC (S. aureus; Staphylococcus aureus, strain SAP0017, Methicillin resistant): > 16 µg/mL | MIC (P. AERUGINOSA H309; Pseudomonas aeruginosa, +5 mM Mg^++, read-out: MIC): 2 µg/mL (≈ 3.66 µM) | MIC (P. AERUGINOSA H309; Pseudomonas aeruginosa, +80 mM Na^+, read-out: MIC): 2 µg/mL (≈ 3.66 µM) | MIC (P. AERUGINOSA H309; Pseudomonas aeruginosa, No addition, read-out: MIC): 1 µg/mL (≈ 1.83 µM) | MIC in the presence of ([1]; CEMA 0.7 μg/ml): 2 μg/m1 | MIC in the presence of ([1]; CEMA 1.4 μg/ml): 2 μg/m1 | MIC in the presence of ([1]; CEME 0.6 μg/ml): 4 μg/m1 | MIC in the presence of ([1]; CEME 1.2 μg/ml): 4 μg/m1 | MIC in the presence of ([1]; Melittin 2 μg/ml): 4 μg/m1 | MIC in the presence of ([1]; Melittin 4 μg/ml): 2 μg/m1 | MIC in the presence of ([1]; No peptide): 4 μg/m1

gentamicin
MIC (P. aeruginosa; strain H187, Parent of H188): 1 µg/mL | MIC (P. aeruginosa; strain H188, Antibiotic sensitive): 0.25 µg/mL | MIC (P. aeruginosa; strain H309, Wildtype): 1 µg/mL | MIC (E. coli; strain UB1005, Parent of DC2 (Table 2)): 1 µg/mL | MIC (E. cloacae; strain 218S, Parent of 218R1 (Table 2)): 0.5 µg/mL | MIC (S. aureus; strain RN4220, Methicillin sensitive): 2 µg/mL | MIC (S. aureus; strain SAP0017, Methicillin resistant): > 8 µg/mL | MIC (P. AERUGINOSA H309; +5 mM Mg^++): 4 µg/mL | MIC (P. AERUGINOSA H309; +80 mM Na^+): 1 µg/mL | MIC (P. AERUGINOSA H309; No addition): 1 µg/mL | I50, Value in μg/ml (P. aeruginosa H103 LPS): 18.16 ± 6.77 µg/mL | IC50 (P. aeruginosa H103 LPS; read-out: I50, Value in μM): 19.2 ± 7.18 µM | I50, Value in μg/ml [2]: 36.92 ± 9.12 µg/mL
